The structures appear in SMILES notation.

One data set relates to murine C2C12 myoblast. Kind of data set: terminal differentiation of C2C12 myoblasts, scored by size and extent of myotube formation. In kind it is cell-based. The settings on record: low-mitogen differentiation cultures (2% horse serum/DMEM).
Data set [1] relates to O2K cell line. Put plainly: cell death / survival of differentiating O2K (phase contrast, cell adhesion, CPP32 cleavage, Annexin V). In kind it is cell-based, porcine. The settings on record: SRM basal medium without hLIF, DOX, PD032591 and PD173074. The text has this:
(§1) 1. As CHIR99021 repressed cell death, supported differentiation toward paraxial mesoderm by the differentiating O2K cell line and enhanced terminal differentiation by the C2C12 cell line, precedent was established to retain the compound in all culture stages.
TUBA is detected an internal protein loading control.

The test system of the next data set is CTNNB1. Kind of data set: Western blot of CTNNB1 level and phosphorylation in differentiating O2K. In kind it is cell-based, porcine. The settings on record: primordial differentiation. The text has this: TUBA detected as an internal protein loading control. […] TUBA detection is shown as an internal protein loading control.
The subject of data set [2] is O2K cell line. Kind of data set: differentiation marker Western blot (PAX3, POU5F1, KLF4) in O2K. Type of data set: cell-based, porcine. The settings on record: differentiating O2K, CHIR99021 supplemented basal medium.
Source text: as §1
TUBA detected as an internal protein loading control. FIG. 13A indicates ratios of p-CTNNB1/CTNNB1 bands. FIG. 13B indicates ratios of CTNNB1/TUBA bands. […] TUBA detection is shown as an internal protein loading control.

The next data set relates to piPSC-derived myotubes. Put plainly: calcium transient activity (Fluo-4 AM) in piPSC-derived myotubes. Particulars: d6 myotubes, 10 mM, field of view. In kind it is cell-based, porcine. The text has this:
To quantify contraction cycles, myotube cultures were stained with Fluo-4 AM calcium dye, washed, and image sequences were captured by confocal microscopy. Dynamic signaling events of an entire field of view (FOV) or single cells were traced and plotted over the imaging course. [s]=seconds.

A further data set relates to O2KM cell line. Put plainly: 5AC effects on MYF5 expression and terminal differentiation of O2KM. In kind it is cell-based, porcine. As to the method:
Therefore, a epigenetic modulator was used to enhance the expression of myogenic genes in cells otherwise non-permissive to myogenesis and enhance terminal differentiation of lineage committed myoctes to mature myofibers. […] This distinction may explained by the enhanced expression of the myogenic transcription factor MYF5 observed only in the 5AC-exposed O2KM prior to and following 48 hours of DOX withdrawal
(§2) 5AC exposure prior to, during, and following E2-mediated induction of ‘MyoDER’ was introduced to enable terminal-differentiation of O2KM from myocytes into refractive, filamentous myotubes. The murine C2C12 cell line was used as positive control to screen for optimal conditions for terminal differentiation by O2KM. […] 5AC, a small-molecule epigenetic modulator, was determined previously to enable skeletal muscle transcription in cell lines non-permissive to myogenesis. Moreover, 5AC exposure was further determined to enhance terminal differentiation by the C2C12 cell line.
N-2 and B-27 supplements were used exclusively as serum replacements. Cultures were differentiated for up to 6d following under 20% O2 following induction regimens (FIG. 20A). […] Contractile potential of terminally differentiating skeletal muscle myotubes was validated by (1) structural development of well-organized sarcomeres, as shown in FIG. 20G; (2) asynchronous spontaneous contraction, as shown in FIG. 21A; (3) contractile stimulation and synchronization by field stimulation, as shown in FIG. 21B; (4) caffeine-stimulated contraction, as shown in FIG. 21C; and (5) acetylcholine-stimulated contraction, as shown in FIG. 21D.
piPSC modification with an integrated MyoDER expression cassette. […] Arrows and boxes indicate promoter and gene sequences, respectively. […] MyoDER was detected with an antibody raised against a MyoD peptide. […] Endogenous MYOD1 (˜45 kD, expected) was not detected. […] Double Arrow: Partially resolved MYOG isoforms. FIGS. 19A and 19B. Determinants of MYF5 activation: Western blot analyses. […] In the absence of CHIR99021, the 17 kD cleaved caspase isoform was not observed in the KOSR supplemented differentiation milieu, as in contrast to observations in the N-2 and B-27 supplemented differentiation milieu (FIG. 17A, FIG. 19A). […] MYODER-modified piPSC were cultured 3 days in self-renewal or expansion milieu. […] TUBA is detected as an internal protein loading control.

The test system of another data set is undifferentiated O2KM. Kind of data set: 5AC tolerance of undifferentiated O2KM. Type of data set: cell-based, porcine. As to the method:
as §2

`Cc1c[nH]c(-c2cnc(NCCNc3ccc(C#N)cn3)nc2-c2ccc(Cl)cc2Cl)n1` [CHIR99021]: the “terminal differentiation of C2C12 into skeletal myotubes” value in the data set with murine C2C12 myoblast is reported as “enhanced terminal differentiation into skeletal myotubes”. Besides, the “cell survival during differentiation” value in the data set with O2K cell line [1] is reported as “supported both cell survival during differentiation”. Further, the “CTNNB1 stabilization and phosphorylation status” value with CTNNB1 was “stabilizes and modulates the phosphorylation status of the GSK3β substrate, CTNNB1”. For the same molecule, in the data set on O2K cell line [2], the “paraxial mesoderm lineage specification (PAX3 expression, loss of POU5F1 and KLF4)” value is on record as “supported pre-myogenic paraxial mesoderm lineage specification of differentiating O2K”.

Consider `Cn1c(=O)c2c(ncn2C)n(C)c1=O` [caffeine], for which the calcium transient activation result with piPSC-derived myotubes is “calcium transient activation”.

Consider `Nc1ncn([C@@H]2O[C@H](CO)[C@@H](O)[C@H]2O)c(=O)n1` [5AC, 5-Aza-Cytidine], for which the “MYF5 expression after expansion culture” value with O2KM cell line (MyoDER-modified piPSC, 3 days, in the presence of DOX and CHIR99021) is listed as “supported detectable MYF5 expression levels”. The MYF5 expression result in the data set with O2KM cell line (O2KM derived myocytes cultured in the presence of 5AC) was “MYF5 expression was enhanced”. Also, in the data set with O2KM cell line (O2KM exposed to 5AC during expansion and induction regimens), the “myotube morphology in terminal differentiation” value is reported as “formed refractive, anisotropic myotubes”. Also, the “activation of endogenous MYF5 expression, dependence on CHIR99021” value in the data set with O2KM cell line (unmodified piPSC, 2d differentiation milieu with KOSR, no 3i, DOX, hLIF, E2) is “dependent upon simultaneous CHIR99021 exposure”. In the data set with undifferentiated O2KM, the highest dose tolerated turned out to be 250 nM.

These data come from US20160251625A1, “METHOD FOR SCALABLE SKELETAL MUSCLE LINEAGE SPECIFICATION AND CULTIVATION” (THE CURATORS OF THE UNIVERSITY OF MISSOURI, priority 2013, published 2016).
